Here are results for four molecules from US12252524B2, “GIP/GLP1 co-agonist compounds” (Eli Lilly and Company, priority 2018, dated 2025).

One test addresses T1, human Gcg receptor (Homo sapiens, UniProt P47871).
T1 construct: expressed in transfected cells; crude membranes
In words: [125I]-Glucagon binding (SPA), human Gcg receptor. To be noted: read-out: hGLcgR Ki, nM (SEM, n). The essentials: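 Crude membranes from cells expressing the receptor, prepared by hypotonic lysis in 50 mM Tris HCl pH 7.5 with protease inhibitors, homogenization and differential centrifugation, were used in a WGA-bead SPA. Binding buffer: 25 mM HEPES pH 7.4, 2.5 mM CaCl2, 1 mM MgCl2, bacitracin, Tween-20.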

In a further test the target is T2, human GIP receptor (Homo sapiens, UniProt P48546).
T2 construct: expressed in transfected cells; crude membranes
T2 sequence (P48546 22-466): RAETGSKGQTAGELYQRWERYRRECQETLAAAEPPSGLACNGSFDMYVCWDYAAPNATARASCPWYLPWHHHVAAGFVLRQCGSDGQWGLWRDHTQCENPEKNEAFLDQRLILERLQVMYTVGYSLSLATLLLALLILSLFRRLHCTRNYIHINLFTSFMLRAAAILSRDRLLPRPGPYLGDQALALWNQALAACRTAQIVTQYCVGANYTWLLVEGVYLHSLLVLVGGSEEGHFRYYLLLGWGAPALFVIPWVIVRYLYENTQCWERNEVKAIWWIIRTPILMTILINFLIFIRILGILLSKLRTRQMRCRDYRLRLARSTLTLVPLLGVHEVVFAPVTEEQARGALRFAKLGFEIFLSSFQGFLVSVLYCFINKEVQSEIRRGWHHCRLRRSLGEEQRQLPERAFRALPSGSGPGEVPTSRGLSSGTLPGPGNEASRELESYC
Briefly: [125I]-GIP binding (SPA), human GIP receptor. To be noted: read-out: hGIPR Ki, nM (SEM, n).

Test [1] addresses human GLP-1 receptor (GLP-1R) (Homo sapiens, UniProt P43220). Briefly: cAMP pharmacological functional assay in presence of casein, hGLP-1R. The class given is cell-based. To be noted: HEK293 cells expressing hGLP-1R, 0.1% Casein, geometric mean; read-out: hGLP1R cAMP Rel EC50 nM (SEM, n).
The target of test [2] is T3, gastric inhibitory peptide receptor (GIPR) (Homo sapiens, UniProt P48546).
T3 sequence (P48546 22-466): T2 sequence (P48546 22-466)
Briefly: cAMP pharmacological functional assay in presence of casein, hGIPR. The format is cell-based. As to conditions: HEK293 cells expressing hGIPR, 0.1% Casein, geometric mean; read-out: hGIPR cAMP Rel EC50 nM (SEM, n).

The next test has as its target human GLP-1R (Homo sapiens, UniProt P43220). Briefly: [125I]-GLP-1 binding (SPA), human GLP-1 receptor. The arrangement: expressed in transfected cells; crude membranes. As to conditions: read-out: hGLP1R Ki, (nM) (SEM, n). How it is done:
Two methods are used for the preparation of crude cell membranes.
Method 1: Frozen cell pellets are lysed on ice in hypotonic buffer containing 50 mM Tris HCl, pH 7.5, and Roche Complete™ Protease Inhibitors with EDTA. The cell suspension is disrupted using a glass Potter-Elvehjem homogenizer fitted with a Teflon® pestle for 25 strokes. The homogenate is centrifuged at 4° C. at 1100×g for 10 minutes. The supernatant is collected and stored on ice while the pellets are resuspended in homogenization buffer and rehomogenized as described above. The homogenate is centrifuged at 1100×g for 10 minutes. The second supernatant is combined with the first supernatant and centrifuged at 35000×g for 1 hour at 4° C. The resulting membrane pellet is resuspended in homogenization buffer containing protease inhibitors at approximately 1 to 3 mg/mL, quick frozen in liquid nitrogen and stored as aliquots in a−80° C. freezer until use.
Method 2: Frozen cell pellets are lysed on ice in hypotonic buffer containing 50 mM Tris HCl, pH 7.5, 1 mM MgCl2, Roche Complete™ EDTA-free Protease Inhibitors and 25 units/ml DNAse I (Invitrogen). The cell suspension is disrupted using a glass Potter-Elvehjem homogenizer fitted with a Teflon® pestle for 20 to 25 strokes. The homogenate is centrifuged at 4° C. at 1800×g for 15 minutes. The supernatant is collected and stored on ice while the pellets are resuspended in homogenization buffer (without DNAse I) and rehomogenized as described above. The homogenate is centrifuged at 1800×g for 15 minutes. The second supernatant is combined with the first supernatant and centrifuged an additional time at 1800×g for 15 minutes. The overall supernatant is then centrifuged at 25000×g for 30 minutes at 4° C. The resulting membrane pellet is resuspended in homogenization buffer (without DNAse I) containing protease inhibitors at approximately 1 to 3 mg/mL and stored as aliquots in a−80° C. freezer until use.
The binding buffer contains 25 mM HEPES, pH 7.4, 2.5 mM CaCl2, 1 mM MgCl2, 0.1% (w/v) bacitracin, 0.003% (w/v) TWEEN©-20, and Roche Complete™ Protease Inhibitors without EDTA.
Data are analyzed using four-parameter (curve maximum, curve minimum, IC50, Hill slope) nonlinear regression routines (Genedata Screener, version 12.0.4, Genedata AG, Basal, Switzerland). […] Values for Ki are reported as the geometric mean, with error expressed as the standard error of the mean (SEM) and n is equal to the number of independent replicates (determined in assays performed on different days). […] The Ki Ratio is a rapid indication of the apparent affinity of a peptide compared to the native control peptide. […] SEM is only calculated when n=2 or greater non-qualified results exist. Means are expressed as GeoMetric means with the standard error of the mean (SEM) and the number of replicates (n) indicated in parenthesis.

Numbered stars: 1 amine (or outer) side, 2 acyl side, 3 side chain; on linkers, the order of the positions; unused ones are H or OH. Square brackets hold non-standard residues; d marks the D form. Side chains are listed from the residue outwards. Peptide text beside a SMILES is read from it. * marks the point of attachment. C20 diacid = O=C(O)CCCCCCCCCCCCCCCCCCC(=O)*; γGlu = O=C(O)[C@H](CCC(=O)[*:2])N[*:1]; αMeF = C[C@](N)(Cc1ccccc1)C(=O)O; αMeL = CC(C)C[C@](C)(N)C(=O)O; AEEA = NCCOCCOCC(=O)O; Aib = CC(C)(N)C(=O)O Some results are limits rather than exact numbers.

T1 sequence (P47871 26-477): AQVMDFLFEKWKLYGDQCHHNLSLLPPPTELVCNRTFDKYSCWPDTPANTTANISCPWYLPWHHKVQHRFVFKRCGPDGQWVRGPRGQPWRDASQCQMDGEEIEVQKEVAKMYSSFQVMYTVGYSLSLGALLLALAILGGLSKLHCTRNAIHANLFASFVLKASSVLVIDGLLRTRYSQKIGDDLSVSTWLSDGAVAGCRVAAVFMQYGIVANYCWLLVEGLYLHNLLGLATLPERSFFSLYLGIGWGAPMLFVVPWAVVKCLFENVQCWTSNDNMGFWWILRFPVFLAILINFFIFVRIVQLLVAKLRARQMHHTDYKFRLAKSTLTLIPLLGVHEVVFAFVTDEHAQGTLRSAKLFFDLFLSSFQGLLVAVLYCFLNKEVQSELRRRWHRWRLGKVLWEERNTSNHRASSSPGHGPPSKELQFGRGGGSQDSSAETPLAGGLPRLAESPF
Sequence of human GLP-1R (P43220 24-463): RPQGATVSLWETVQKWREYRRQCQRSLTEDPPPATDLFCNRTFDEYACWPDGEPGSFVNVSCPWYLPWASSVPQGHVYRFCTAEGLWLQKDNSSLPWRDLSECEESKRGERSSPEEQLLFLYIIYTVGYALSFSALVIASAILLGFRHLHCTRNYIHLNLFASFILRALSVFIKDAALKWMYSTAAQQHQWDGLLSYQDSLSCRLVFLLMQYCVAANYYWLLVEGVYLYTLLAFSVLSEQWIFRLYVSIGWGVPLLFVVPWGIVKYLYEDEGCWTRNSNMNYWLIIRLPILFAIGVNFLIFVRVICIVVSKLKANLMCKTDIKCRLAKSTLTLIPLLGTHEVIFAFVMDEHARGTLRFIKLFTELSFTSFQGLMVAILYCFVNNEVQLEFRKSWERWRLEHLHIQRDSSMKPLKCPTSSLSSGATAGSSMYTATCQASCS
Sequence of human GLP-1 receptor (GLP-1R) (P43220 24-463): as above

By Ki is commonly meant a measure of affinity in units of concentration, obtained from inhibition or displacement. A word on the EC50: it is the concentration that produces a half-maximal response. `CC[C@H](C)[C@H](NC(=O)[C@H](CCCCN)NC(=O)[C@H](CC(=O)O)NC(=O)[C@H](CC(C)C)NC(=O)[C@H](CC(C)C)NC(=O)[C@@H](NC(=O)[C@H](CO)NC(=O)[C@H](Cc1ccc(O)cc1)NC(=O)[C@H](CC(=O)O)NC(=O)[C@H](CO)NC(=O)[C@@H](NC(=O)[C@H](Cc1ccccc1)NC(=O)[C@@H](NC(=O)CNC(=O)[C@H](CCC(=O)O)NC(=O)C(C)(C)NC(=O)[C@@H](N)Cc1ccc(O)cc1)[C@@H](C)O)[C@@H](C)O)[C@@H](C)CC)C(=O)N[C@@H](C)C(=O)N[C@@H](CCC(N)=O)C(=O)NC(C)(C)C(=O)N[C@@H](C)C(=O)N[C@@H](Cc1ccccc1)C(=O)N[C@H](C(=O)N[C@@H](CCC(=O)O)C(=O)N[C@@H](Cc1ccc(O)cc1)C(=O)N[C@@H](CC(C)C)C(=O)N[C@H](C(=O)N[C@@H](CCC(=O)O)C(=O)NCC(=O)NCC(=O)N[C@@H](CCCCNC(=O)COCCOCCNC(=O)COCCOCCNC(=O)CC[C@H](NC(=O)CCCCCCCCCCCCCCCCCCC(=O)O)C(=O)O)C(=O)N[C@@H](CO)C(=O)N[C@@H](CO)C(=O)NCC(=O)N[C@@H](C)C(=O)N1CCC[C@H]1C(=O)N1CCC[C@H]1C(=O)N1CCC[C@H]1C(=O)N[C@@H](CO)C(N)=O)[C@@H](C)CC)[C@@H](C)CC` [Example 40] (H-Y[Aib]EGTFTSDYSILLDKIAQ[Aib]AFIEYLIEGGK([AEEA-AEEA-γGlu-C20 diacid])SSGAPPPS-NH2): the Ki came out at 150 nM at human Gcg receptor, 0.0345 nM on human GIP receptor and 7.56 nM at human GLP-1R. Besides, the EC50 in test [1] was determined as 0.746 nM; in test [2] it was 0.136 nM.

Consider `CC[C@H](C)[C@H](NC(=O)[C@H](CC(C)C)NC(=O)[C@H](Cc1ccc(O)cc1)NC(=O)[C@H](CCC(=O)O)NC(=O)[C@@H](NC(=O)[C@H](Cc1ccccc1)NC(=O)[C@H](CO)NC(=O)C(C)(C)NC(=O)[C@H](CCC(N)=O)NC(=O)[C@H](C)NC(=O)[C@H](CCCCNC(=O)COCCOCCNC(=O)COCCOCCNC(=O)CC[C@H](NC(=O)CCCCCCCCCCCCCCCCCCC(=O)O)C(=O)O)NC(=O)[C@H](CCCCN)NC(=O)[C@H](CC(=O)O)NC(=O)[C@H](CC(C)C)NC(=O)[C@](C)(CC(C)C)NC(=O)[C@@H](NC(=O)[C@H](CO)NC(=O)[C@H](Cc1ccc(O)cc1)NC(=O)[C@H](CC(=O)O)NC(=O)[C@H](CO)NC(=O)[C@@H](NC(=O)[C@](C)(Cc1ccccc1)NC(=O)[C@@H](NC(=O)CNC(=O)[C@H](CCC(=O)O)NC(=O)C(C)(C)NC(=O)[C@@H](N)Cc1ccc(O)cc1)[C@@H](C)O)[C@@H](C)O)[C@@H](C)CC)[C@@H](C)CC)C(=O)N[C@@H](CCC(=O)O)C(=O)NCC(=O)NCC(=O)N1CCC[C@H]1C(=O)N[C@@H](CO)C(=O)N[C@@H](CO)C(=O)NCC(=O)N[C@@H](C)C(=O)N1CCC[C@H]1C(=O)N1CCC[C@H]1C(=O)N1CCC[C@H]1C(=O)N[C@@H](CO)C(N)=O` [Example 138] (H-Y[Aib]EGT[αMeF]TSDYSI[αMeL]LDKK([AEEA-AEEA-γGlu-C20 diacid])AQ[Aib]SFIEYLIEGGPSSGAPPPS-NH2; N-terminus assumed), for which the Ki on human Gcg receptor came out at 61.2 nM; at human GIP receptor, 0.0295 nM; on human GLP-1R, 0.926 nM. In addition, the EC50 in test [1] was found to be 0.0471 nM; in test [2], 0.0581 nM.

For the molecule `CC[C@H](C)[C@H](NC(=O)[C@H](CCCCN)NC(=O)[C@H](CC(=O)O)NC(=O)[C@H](CC(C)C)NC(=O)[C@H](CC(C)C)NC(=O)[C@@H](NC(=O)[C@H](CO)NC(=O)[C@H](Cc1ccc(O)cc1)NC(=O)[C@H](CC(=O)O)NC(=O)[C@H](CO)NC(=O)[C@@H](NC(=O)[C@H](Cc1ccccc1)NC(=O)[C@@H](NC(=O)CNC(=O)[C@H](CCC(=O)O)NC(=O)C(C)(C)NC(=O)[C@@H](N)Cc1ccc(O)cc1)[C@@H](C)O)[C@@H](C)O)[C@@H](C)CC)C(=O)N[C@@H](C)C(=O)N[C@@H](CCC(N)=O)C(=O)NC(C)(C)C(=O)N[C@@H](C)C(=O)N[C@@H](Cc1ccccc1)C(=O)N[C@H](C(=O)N[C@@H](CCC(=O)O)C(=O)N[C@@H](Cc1ccc(O)cc1)C(=O)N[C@@H](CC(C)C)C(=O)N[C@H](C(=O)N[C@@H](CCC(=O)O)C(=O)NCC(=O)NCC(=O)N1CCC[C@H]1C(=O)N[C@@H](CO)C(=O)N[C@@H](CO)C(=O)NCC(=O)N[C@@H](CCCCNC(=O)COCCOCCNC(=O)COCCOCCNC(=O)CC[C@H](NC(=O)CCCCCCCCCCCCCCCCCCC(=O)O)C(=O)O)C(=O)N1CCC[C@H]1C(=O)N1CCC[C@H]1C(=O)N1CCC[C@H]1C(=O)N[C@@H](CO)C(N)=O)[C@@H](C)CC)[C@@H](C)CC` [Example 44] (H-Y[Aib]EGTFTSDYSILLDKIAQ[Aib]AFIEYLIEGGPSSGK([AEEA-AEEA-γGlu-C20 diacid])PPPS-NH2), the Ki amounted to 121 nM at human Gcg receptor, 0.0516 nM on human GIP receptor and 10.6 nM at human GLP-1R. In addition, the EC50 was 0.752 nM in test [1] and 0.128 nM in test [2].

Regarding `CC[C@H](C)[C@H](NC(=O)[C@H](CCCCN)NC(=O)[C@H](CC(=O)O)NC(=O)[C@H](CC(C)C)NC(=O)[C@H](CCCCNC(=O)COCCOCCNC(=O)COCCOCCNC(=O)CC[C@H](NC(=O)CCCCCCCCCCCCCCCCCCC(=O)O)C(=O)O)NC(=O)[C@@H](NC(=O)[C@H](CO)NC(=O)[C@H](Cc1ccc(O)cc1)NC(=O)[C@H](CC(=O)O)NC(=O)[C@H](CO)NC(=O)[C@@H](NC(=O)[C@H](Cc1ccccc1)NC(=O)[C@@H](NC(=O)CNC(=O)[C@H](CCC(=O)O)NC(=O)C(C)(C)NC(=O)[C@@H](N)Cc1ccc(O)cc1)[C@@H](C)O)[C@@H](C)O)[C@@H](C)CC)C(=O)N[C@@H](C)C(=O)N[C@@H](CCC(N)=O)C(=O)NC(C)(C)C(=O)N[C@@H](C)C(=O)N[C@@H](Cc1ccccc1)C(=O)N[C@H](C(=O)N[C@@H](CCC(=O)O)C(=O)N[C@@H](Cc1ccc(O)cc1)C(=O)N[C@@H](CC(C)C)C(=O)N[C@H](C(=O)N[C@@H](CCC(=O)O)C(=O)NCC(=O)NCC(=O)N1CCC[C@H]1C(=O)N[C@@H](CO)C(=O)N[C@@H](CO)C(=O)NCC(=O)N[C@@H](C)C(=O)N1CCC[C@H]1C(=O)N1CCC[C@H]1C(=O)N1CCC[C@H]1C(=O)N[C@@H](CO)C(N)=O)[C@@H](C)CC)[C@@H](C)CC` [Example 26] (H-Y[Aib]EGTFTSDYSIK([AEEA-AEEA-γGlu-C20 diacid])LDKIAQ[Aib]AFIEYLIEGGPSSGAPPPS-NH2), the Ki is over 960 nM on human Gcg receptor, 0.176 nM on human GIP receptor and 4.22 nM at human GLP-1R. Also, the results for the EC50 in test [1] and in test [2] were 0.293 nM and 0.251 nM, respectively.
